What was measured:
anti-FVIII titers = assay: Tolerance induction and FVIII re-challenge study (FVIII, FVIII plus OPLS, FVIII plus Dexamethasone); assay type: in vivo, HA mice; conditions: co-administered sc with 1 μg FVIII, 4 weekly
Procedure: Tolerance induction studies in HA mice: Breeding pairs of exon 16 knockout transgenic hemophilic mice (HA) were used. All animal studies were conducted in accordance with an approved protocol by the Institutional Animal Use and Care Committee at the University at Buffalo, State University of New York.
Immunization and re-challenge schedule: To delineate whether OPLS mediated reduction of antibody titer is due to immune tolerance or immune suppression, we performed re-challenge experiments. Forty HA mice were pre-treated with FVIII, FVIII plus OPLS or FVIII plus Dexamethasone once-a-week for four consecutive weeks by sc injections of endotoxin free formulation of 1 μg of FVIII alone or with 5 mg OPLS or 200 ng Dexamethasone (Dex) as shown in FIG. 32. The injections were prepared in TRIS buffers containing 25 mM TRIS and 150 mM NaCl at pH 7.5. For OPLS containing formulations, OPLS was added to the buffer and the pH adjusted to 7.5. The appropriate amount of FVIII was added immediately before injection to prevent complexation between FVIII and OPLS pre-injection. […] Total anti-FVIII titer levels were measured by ELISA.
Statistics: Non-parametric one-way ANOVA with Tukey's post hoc analysis was used for the analysis of titer values where appropriate. Student t-test was used for comparing mean intensity of fluorescence (MIF) for flow cytomerty data. […]

anti-RXT antibody titers = assay: Effect of OPLS on rituximab immunogenicity; assay type: in vivo, SW mice; conditions: OPLS 5 mg vs 0.4 mg with 1 μg RXT s.c., dose dependent
Procedure: Materials and Methods: 30 SW mice between 6 and 8 weeks of age were divided into 3 groups: group one received 1 ug RXT SC in the abdominal region. Group two received 1 ug RXT/0.4 mg OPLS SC in the abdominal region and group 3 received 1 μg RXT/5 mg OPLS sc in the abdominal region. This treatment was given one day 1, 8, 10 and 12. Three days after the last injection the animals were sacrificed. Blood was centrifuged at 7500 rpm for 5 min at 4 degrees Celsius. Plasma was then removed and stored at −80 degrees Celsius until analysis Total titers were determined by classical standard ELISA. Briefly, Nunc-Maxisorb 96-well plates were coated overnight at 4° C. with 50 μl/well of 2.5 μg/ml RXT. Plates were then washed and blocked with 1% bovine serum albumin (blocking buffer). 50 μl/well of various dilutions of the sample were added to the plate and incubated at room temperature for 2 h. Plasma samples from animals exposes to a sham treatment (buffer only) served as controls. The plates were then washed and incubated with 50 μl of goat anti-mouse FC-specific anti-body-HRP conjugate at a 1:50000 dilution in blocking buffer at room temperature for 1 h. Color was developed for 20 min with 100 μl of TMB solution. 100 μl of 2 N H2SO4 was used to stop the reaction. Optical density at […] was measured using a plate reader. Non-responders were given the value of the plate specific factor for uniformity. […]

Question: For `N[C@@H](COP(=O)(O)O)C(=O)O` [OPLS, O-Phospho-L-Serine], which “Anti-FVIII antibody response during the pre-treatment stage” value (anti-FVIII titers) is on record?
Answer: Its value is “reduced”.

Question: And the “Anti-RXT antibody titers vs RXT alone” value (anti-RXT antibody titers)?
Answer: The value was “lower”.
